From PubChem BioAssay (NCI)
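Grown in 96-well plates, cells were treated for 48 hours with each compound at five concentrations. Insufficient inhibition: endpoint recorded as highest concentration tested. GI50 = concentration required for 50% inhibition of growth. TGI is the concentration that stops growth completely.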

Tests used:
Experiment in all cases: DTP human tumour cell line panel, 48 h
[1] = system: CAKI-1 renal
[2] = system: HL-60(TB) leukemia
[3] = system: HT29 colon
[4] = system: LOX IMVI melanoma
[5] = system: NCI-H23 lung
[6] = system: SF-295 CNS
[7] = system: SF-539 CNS
[8] = system: SNB-19 CNS
[9] = system: UO-31 renal
[10] = system: MOLT-4 leukemia

Question: How did the TGI [1] turn out when O=C(c1ccc(Cl)cc1)C1OC12C(=O)Nc1ccccc12 (stereo not given) was run?
Answer: 20.6 µM

Question: And the TGI [2]?
Answer: 1.58 µM

Question: What about the TGI [3] of the same compound?
Answer: 27.5 µM

Question: What about the TGI [4] of the same compound?
Answer: 4.67 µM

Question: And the TGI [5]?
Answer: 32.9 µM

Question: What about the TGI [6] of the same compound?
Answer: 33.7 µM

Question: What about the TGI [7] of the same compound?
Answer: 30.6 µM

Question: What about the TGI [8] of the same compound?
Answer: 86.7 µM

Question: What about the TGI [9] of the same compound?
Answer: 29.4 µM

Question: How did the TGI [1] turn out when COc1ccc(CCc2cc(OC)c(OC)c(OC)c2)cc1 was run?
Answer: 20.4 µM

Question: And the TGI [2]?
Answer: 0.296 µM

Question: What about the TGI [3] of the same compound?
Answer: 1.44 µM

Question: What about the TGI [4] of the same compound?
Answer: 39.5 µM

Question: And the TGI [10]?
Answer: 6.26 µM

Question: What about the TGI [5] of the same compound?
Answer: 26.9 µM

Question: What about the TGI [6] of the same compound?
Answer: 1.46 µM

Question: And the TGI [7]?
Answer: 0.146 µM

Question: And the TGI [8]?
Answer: > 100 µM

Question: And the TGI [9]?
Answer: 83.2 µM

Question: Which results are given for CC(=O)C1C(=O)N(C(C)C)C[C@@H]2CCC(=O)C[C@H]12 (stereo not given in full)?
Answer: TGI [1]: > 100 µM; TGI [2]: > 100 µM; TGI [3]: > 100 µM; TGI [4]: > 100 µM; TGI [10]: > 100 µM; TGI [5]: > 100 µM; TGI [6]: > 100 µM; TGI [7]: > 100 µM; TGI [8]: > 100 µM; TGI [9]: > 100 µM

Question: CCOc1ccc(C(CN2CCOCC2)C(C)=O)cc1OC (stereo not given) was tested. Which TGI [1] did it give?
Answer: 23.4 µM

Question: What about the TGI [2] of the same compound?
Answer: 17 µM

Question: And the TGI [3]?
Answer: 34.8 µM

Question: And the TGI [4]?
Answer: 31.1 µM

Question: And the TGI [10]?
Answer: > 100 µM

Question: What about the TGI [5] of the same compound?
Answer: 32.9 µM

Question: And the TGI [6]?
Answer: > 100 µM

Question: What about the TGI [7] of the same compound?
Answer: 32.8 µM

Question: And the TGI [8]?
Answer: 32 µM

Question: What about the TGI [9] of the same compound?
Answer: 27.8 µM

Question: How did the GI50 [1] turn out when CC/C=C\C/C=C\C[C@H](O)C/C=C1/C(=O)C=C[C@@H]1C/C=C\CCCC(=O)OC was run?
Answer: 3.41 µM

Question: And the TGI [1]?
Answer: 14.5 µM

Question: And the GI50 [2]?
Answer: 1.71 µM

Question: What about the TGI [2] of the same compound?
Answer: 6.06 µM

Question: And the GI50 [3]?
Answer: 1.48 µM

Question: And the TGI [3]?
Answer: 3.21 µM

Question: And the GI50 [4]?
Answer: 0.21 µM

Question: And the TGI [4]?
Answer: 0.493 µM

Question: What about the GI50 [10] of the same compound?
Answer: 1.2 µM

Question: What about the TGI [10] of the same compound?
Answer: 4.41 µM

Question: And the GI50 [5]?
Answer: 2.19 µM

Question: And the TGI [5]?
Answer: 5.29 µM

Question: And the GI50 [6]?
Answer: 2.3 µM

Question: And the TGI [6]?
Answer: 5.56 µM

Question: What about the GI50 [7] of the same compound?
Answer: 2.53 µM

Question: What about the TGI [7] of the same compound?
Answer: 6.09 µM

Question: What about the GI50 [8] of the same compound?
Answer: 3.05 µM

Question: What about the TGI [8] of the same compound?
Answer: 13.7 µM

Question: And the GI50 [9]?
Answer: 1.55 µM

Question: What about the TGI [9] of the same compound?
Answer: 3.03 µM

Question: With CC1=NN(C(=O)c2ccccc2O)C(=O)/C1=C/c1cccc([N+](=O)[O-])c1 as the compound, how does the TGI [1] read?
Answer: > 100 µM

Question: And the TGI [2]?
Answer: > 62.9 µM

Question: And the TGI [3]?
Answer: > 100 µM

Question: And the TGI [4]?
Answer: > 78.5 µM

Question: What about the TGI [10] of the same compound?
Answer: > 100 µM

Question: What about the TGI [5] of the same compound?
Answer: > 31.8 µM

Question: What about the TGI [6] of the same compound?
Answer: > 100 µM

Question: And the TGI [7]?
Answer: 5.88 µM

Question: And the TGI [8]?
Answer: > 100 µM

Question: Which results are given for CCOP(=O)(Nc1ccc2oc(=O)c3ccccc3c2c1)OCC?
Answer: TGI [1]: > 100 µM; TGI [2]: 55.8 µM; TGI [3]: > 100 µM; TGI [4]: > 100 µM; TGI [10]: > 100 µM; TGI [5]: > 100 µM; TGI [6]: > 100 µM; TGI [7]: > 100 µM; TGI [8]: > 100 µM

Question: N[C@@H]1CCCC[C@@H]1N.O=P([O-])([O-])CN(CP(=O)([O-])[O-])CP(=O)([O-])[O-].[Pt+2] was tested. Which GI50 [1] did it give?
Answer: > 100 µM

Question: And the TGI [1]?
Answer: > 100 µM

Question: What about the GI50 [2] of the same compound?
Answer: > 100 µM

Question: What about the TGI [2] of the same compound?
Answer: > 100 µM

Question: What about the GI50 [3] of the same compound?
Answer: > 100 µM

Question: What about the TGI [3] of the same compound?
Answer: > 100 µM

Question: And the GI50 [4]?
Answer: > 100 µM

Question: What about the TGI [4] of the same compound?
Answer: > 100 µM

Question: And the GI50 [10]?
Answer: > 100 µM

Question: What about the TGI [10] of the same compound?
Answer: > 100 µM

Question: What about the GI50 [6] of the same compound?
Answer: > 100 µM

Question: And the TGI [6]?
Answer: > 100 µM

Question: What about the GI50 [7] of the same compound?
Answer: > 100 µM

Question: What about the TGI [7] of the same compound?
Answer: > 100 µM

Question: And the GI50 [8]?
Answer: > 100 µM

Question: And the TGI [8]?
Answer: > 100 µM

Question: And the GI50 [9]?
Answer: > 100 µM

Question: What about the TGI [9] of the same compound?
Answer: > 100 µM

Question: Which TGI [1] does the source give for COC(=O)/C(=N/NC(N)=O)C(C(=O)OC)C(=O)C(=O)Nc1ccc(Cl)cc1 (stereo not given) here?
Answer: > 100 µM

Question: What about the TGI [2] of the same compound?
Answer: > 100 µM

Question: And the TGI [3]?
Answer: > 100 µM

Question: And the TGI [4]?
Answer: > 100 µM

Question: What about the TGI [10] of the same compound?
Answer: > 100 µM

Question: And the TGI [5]?
Answer: > 100 µM

Question: What about the TGI [6] of the same compound?
Answer: > 100 µM

Question: What about the TGI [7] of the same compound?
Answer: > 100 µM

Question: What about the TGI [8] of the same compound?
Answer: > 100 µM

Question: And the TGI [9]?
Answer: > 100 µM
